# Measurements reported in patent US5378803A, “Azole-fused peptides and processes for preparation thereof” (Sterling Winthrop Inc., priority 1992, dated 1995).
# Residues, ends and D or L forms follow the SMILES beside them.
# Biological target: T1, Substance P (Cavia porcellus, UniProt P30547)
# T1 construct: Strips of longitudinal muscle (derived from terminal ileum of adult male guinea pigs); from tissue; host or cells: longitudinal muscle strips of terminal ileum, adult male guinea pigs (Charles River)
# T1 sequence (P30547 whole entry): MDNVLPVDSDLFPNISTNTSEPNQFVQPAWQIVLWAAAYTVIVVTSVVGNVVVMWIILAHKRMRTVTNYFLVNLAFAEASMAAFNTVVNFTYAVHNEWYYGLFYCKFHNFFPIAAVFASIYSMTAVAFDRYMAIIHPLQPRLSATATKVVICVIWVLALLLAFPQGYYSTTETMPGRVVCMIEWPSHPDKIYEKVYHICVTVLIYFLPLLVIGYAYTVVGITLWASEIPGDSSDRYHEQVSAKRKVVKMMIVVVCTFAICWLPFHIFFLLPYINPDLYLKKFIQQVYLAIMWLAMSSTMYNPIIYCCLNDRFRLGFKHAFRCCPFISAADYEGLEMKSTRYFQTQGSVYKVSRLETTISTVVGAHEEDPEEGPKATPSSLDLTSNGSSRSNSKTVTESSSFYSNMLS
# Experiment: Guinea pig ileum test for Substance P antagonist effect
# Assay type: cell-based
# Details: isolated guinea pig ileum longitudinal muscle strips; Schild plot analysis; 5-10 min contact time; footnote a = limited data due to solubility, b = slope significantly different from -1; read-out: Substance P Antagonist pA2 (converted)
# Protocol: As stated above the azole-fused peptides of Formula I are useful as Substance P antagonists and analgesics or as synthetic intermediates therefor.
# Strips of longitudinal muscle (derived from terminal ileum of adult male guinea pigs (Charles River, 400-600 g.) are mounted in 5-ml. organ baths containing oxygenated Krebs solution containing l μM each of atropine and pyrilamine maintained at 30°-33° C. and connected to isometric transducers. Following tissue equilibration and repeated washing (45-60 min.), SP or an appropriate reference agonist is added cumulatively to the bath and contractions of the tissue are recorded. The bath is washed thoroughly and 30-45 min. is allowed to elapse before construction of a second reference agonist curve to assure reproducibility of the responses. Test compounds are similarly evaluated for agonist activity up to a maximum concentration of 10-100 μM. Regression analysis of the linear portion of the log concentration-percent maximal response curves provides the EC50 (and 95% confidence limits), the standard measure of agonist potency. When appropriate, relative molar potency ratios are calculated (EC50 reference/ED50 test drug). Antagonist activity is examined by pretreating thoroughly washed tissues with test compound (using a standard 5-10 min. contact time), then constructing a cumulative dose-response curve to the reference agonist. The effects of several concentrations of test antagonist, pooled across separate experiments, provide dose-ratio (EC50 shift) data for a standard Schild plot analysis, with computation of the pA2.
row,SMILES,Kb
1,"CC(C)C[C@H](NC(=O)[C@@H](Cc1c[nH]c2ccccc12)NC(=O)c1nc(C2Cc3c([nH]c4ccccc34)CN2)sc1-c1ccccc1)C(=O)N[C@@H](Cc1ccccc1)C(N)=O (single isomer, unassigned) [Example 7]",> 10000 nM
2,"CC(C)C[C@H](NC(=O)[C@@H](Cc1c[nH]c2ccccc12)NC(=O)c1nc(C2Cc3c([nH]c4ccccc34)CN2)sc1-c1ccccc1)C(=O)N[C@@H](Cc1ccccc1)C(N)=O (single isomer, unassigned) [Example 8]",7940 nM
3,"CN(C)CCNC(=O)[C@@H](Cc1c[nH]c2ccccc12)NC(=O)c1nc(C(Cc2c[nH]c3ccccc23)NC(=O)[C@@H]2CCCN2)sc1-c1ccccc1 (single isomer, unassigned) [Example 11]",7940 nM
4,"CN(C)CCNC(=O)[C@@H](Cc1c[nH]c2ccccc12)NC(=O)c1nc(C(Cc2c[nH]c3ccccc23)NC(=O)[C@@H]2CCCN2)sc1-c1ccccc1 (single isomer, unassigned) [Example 12]",5010 nM
5,CC(C)C[C@H](NC(=O)[C@@H](Cc1c[nH]c2ccccc12)NC(=O)c1nc([C@H](Cc2c[nH]c3ccccc23)NC(=O)[C@@H]2CCCN2)sc1-c1ccccc1)C(=O)N[C@@H](Cc1ccccc1)C(N)=O [Example 2],126 nM
6,CC(C)C[C@H](NC(=O)[C@@H](Cc1c[nH]c2ccccc12)NC(=O)c1nc([C@@H](Cc2c[nH]c3ccccc23)NC(=O)[C@@H]2CCCN2)sc1-c1ccccc1)C(=O)N[C@@H](Cc1ccccc1)C(N)=O [Example 3],50.1 nM
7,CC(C)c1sc([C@@H](Cc2c[nH]c3ccccc23)NC(=O)[C@H](Cc2ccccc2)NC(=O)[C@@H](Cc2c[nH]c3ccccc23)NC(=O)[C@@H]2CCCN2)nc1C(=O)N[C@@H](Cc1ccccc1)C(N)=O [Example 4] (HELM PEPTIDE1{P.[dW].F.[CC(C)c1sc([C@@H](Cc2c[nH]c3ccccc23)N[*:1])nc1C(=O)[*:2]].F.[am]}$$$$V2.0),501 nM
8,CC(C)c1sc([C@H](Cc2c[nH]c3ccccc23)NC(=O)[C@H](Cc2ccccc2)NC(=O)[C@@H](Cc2c[nH]c3ccccc23)NC(=O)[C@@H]2CCCN2)nc1C(=O)N[C@@H](Cc1ccccc1)C(N)=O [Example 5] (HELM PEPTIDE1{P.[dW].F.[CC(C)c1sc([C@H](Cc2c[nH]c3ccccc23)N[*:1])nc1C(=O)[*:2]].F.[am]}$$$$V2.0),126 nM
9,CC(C)C[C@H](NC(=O)c1nc([C@H](Cc2ccccc2)NC(=O)[C@@H](Cc2c[nH]c3ccccc23)NC(=O)[C@@H]2CCCN2)sc1-c1c[nH]c2ccccc12)C(=O)N[C@@H](Cc1ccccc1)C(N)=O [Example 6],1260 nM
10,CC(C)C[C@H](NC(=O)c1nc([C@H](Cc2ccccc2)NC(=O)[C@@H](Cc2c[nH]c3ccccc23)NC(=O)[C@@H]2CCCN2)oc1-c1c[nH]c2ccccc12)C(=O)N[C@@H](Cc1ccccc1)C(N)=O [Example 9],5010 nM
11,CC(C)C[C@H](NC(=O)c1nc([C@H](Cc2ccccc2)NC(=O)[C@@H](Cc2c[nH]c3ccccc23)NC(=O)[C@@H]2CCCN2)[nH]c1-c1c[nH]c2ccccc12)C(=O)N[C@@H](Cc1ccccc1)C(N)=O [Example 10],1260 nM
12,CC(C)C[C@H](NC(=O)[C@@H](Cc1c[nH]c2ccccc12)NC(=O)c1nc([C@@H](Cc2c[nH]c3ccccc23)NC(=O)[C@@H]2CCCN2)[nH]c1-c1ccccc1)C(=O)N[C@@H](Cc1ccccc1)C(N)=O [Example 16],200 nM
13,CC(C)C[C@H](NC(=O)[C@@H](Cc1c[nH]c2ccccc12)NC(=O)[C@H](Cc1ccccc1)NC(=O)[C@@H](Cc1c[nH]c2ccccc12)NC(=O)[C@@H]1CCCN1)c1ncc(-c2ccccc2)[nH]1 [Example 17] (HELM PEPTIDE1{P.[dW].F.[dW].[CC(C)C[C@H](N[*:1])c1ncc(-c2ccccc2)[nH]1]}$$$$V2.0),501 nM
14,CC(C)C[C@H](NC(=O)[C@@H](Cc1c[nH]c2ccccc12)NC(=O)c1nc([C@@H](Cc2c[nH]c3ccccc23)NC(=O)[C@@H]2CCCN2)sc1-c1ccccc1)C(=O)N[C@@H](Cc1ccccc1)C(=O)O [Example 18],316 nM
15,CC(C)C[C@H](NC(=O)[C@@H](Cc1c[nH]c2ccccc12)NC(=O)c1nc([C@@H](Cc2c[nH]c3ccccc23)NC(=O)[C@@H]2CCCN2)sc1-c1ccccc1)C(=O)O [Example 19],> 10000 nM
16,CC(C)C[C@H](NC(=O)[C@@H](Cc1c[nH]c2ccccc12)NC(=O)c1nc([C@H](N)Cc2c[nH]c3ccccc23)sc1-c1ccccc1)C(=O)O [Example 20],> 10000 nM
17,CC(C)c1sc([C@@H](Cc2c[nH]c3ccccc23)NC(=O)c2nc([C@@H](Cc3c[nH]c4ccccc34)NC(=O)[C@@H]3CCCN3)sc2-c2ccccc2)nc1C(=O)NC[C@@H](N)Cc1ccccc1 [Example 21],> 10000 nM
18,CC(C)C[C@H](NC(=O)[C@@H](Cc1c[nH]c2ccccc12)NC(=O)c1nc([C@@H](Cc2c[nH]c3ccccc23)NC(=O)[C@@H]2CCCN2)sc1-c1ccccc1)C(=O)N(C)C(Cc1ccccc1)C(N)=O (stereo partly drawn) [Example 22],79.4 nM
19,CC(C)C[C@H](NC(=O)[C@@H](Cc1c[nH]c2ccccc12)NC(=O)c1nc([C@@H](Cc2c[nH]c3ccccc23)NC(=O)[C@@H]2CCCN2)oc1-c1ccccc1)C(=O)N[C@@H](Cc1ccccc1)C(N)=O [Example 24],631 nM
20,CC(C)c1sc([C@@H](Cc2c[nH]c3ccccc23)NC(=O)[C@H](Cc2ccccc2)NC(=O)[C@@H](Cc2c[nH]c3ccccc23)NC(=O)[C@@H]2CCCN2)nc1C(=O)NC[C@@H](N)Cc1ccccc1 [Example 25],794 nM
21,CC(C)c1sc([C@@H](Cc2c[nH]c3ccccc23)NC(=O)[C@H](Cc2ccccc2)NC(=O)[C@@H](Cc2c[nH]c3ccccc23)NC(=O)[C@@H]2CCCN2)nc1CN(C)CCc1ccccc1 [Example 27],≥ 10000 nM
